Assay results published in PubChem BioAssay (NCI).
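In this assay, cells in 96-well plates receive the compound at five concentrations for 48 hours. Endpoints are linearly interpolated between the surrounding concentrations. GI50 marks 50% less growth. The concentration for full growth arrest is given as TGI.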

Experiments:
Test in all cases: DTP human tumour cell line panel, 48 h
[1] = tested on: 786-0 renal
[2] = tested on: CCRF-CEM leukemia
[3] = tested on: HT29 colon
[4] = tested on: MALME-3M melanoma
[5] = tested on: MCF7 breast
[6] = tested on: NCI-H23 lung
[7] = tested on: SK-MEL-28 melanoma
[8] = tested on: SW-620 colon
[9] = tested on: UACC-257 melanoma
[10] = tested on: UACC-62 melanoma

SMILES	TGI [1]	TGI [2]	TGI [3]	TGI [4]	TGI [5]	TGI [6]	TGI [7]	TGI [8]	TGI [9]	TGI [10]	GI50 [2]	GI50 [3]	GI50 [4]	GI50 [5]	GI50 [6]	GI50 [7]	GI50 [8]	GI50 [9]	GI50 [10]
O=C(Sc1c(-c2ccccc2)c(=O)n(-c2ccccc2)c(=S)n1-c1ccccc1)c1cccs1	> 100 µM	97.8 µM	> 100 µM	> 100 µM	> 100 µM	> 100 µM	> 100 µM	> 100 µM	> 100 µM										
Cc1ccc(S(=O)(=O)[C@@H](Cl)[C@H]2N=C(Cl)NN=C2c2ccccc2)cc1	85 µM	75 µM	> 100 µM	41.7 µM	89.6 µM	63.1 µM	36.1 µM	40.8 µM	48.1 µM	44 µM									
Cc1nnc2n(c1=O)CCN2C	> 100 µM	> 100 µM	> 100 µM	> 100 µM	> 100 µM	> 100 µM	> 100 µM	> 100 µM		> 100 µM									
CCOc1ccc(N=NC2C(=O)N(C(=O)CC(=O)Nc3ccccc3)N=C2C)cc1 (configuration not stated)	> 100 µM	> 100 µM	> 100 µM	> 100 µM	> 100 µM	> 100 µM	> 100 µM	> 100 µM	> 100 µM	> 100 µM									
Cc1cccc2nc3c(=O)[nH]c(=O)nc-3n(C)c12	> 100 µM	> 100 µM	> 100 µM	38.5 µM	> 100 µM	> 100 µM	> 100 µM	> 100 µM	> 100 µM	> 100 µM									
Nc1nccc(NCC2(CO)CCC2)n1	> 100 µM	> 100 µM	> 100 µM	> 100 µM	> 100 µM	> 100 µM	> 100 µM	> 100 µM	> 100 µM	> 100 µM									
CC(C)(O)C1CC[C@]2(C)[C@H]3CC[C@@H]4[C@@]5(C)CCCC(C)(C)[C@@H]5CC[C@@]4(C)[C@]3(C)CC[C@@H]12 (some centres not stated)	> 100 µM	> 100 µM	> 100 µM	> 100 µM	> 100 µM	> 100 µM	> 100 µM	> 100 µM	> 100 µM	> 100 µM									
C=C[C@@]1(O)CCCC[C@@H]1CC(Sc1ccccc1)Sc1ccccc1	59.5 µM	> 100 µM	36.9 µM	28 µM	> 100 µM	32.7 µM	86.8 µM		39.6 µM	> 100 µM									
CCOC(=O)NNC(=O)NCc1ccccc1CNC(=O)NNC(=O)OCC	> 100 µM	> 100 µM	> 100 µM	> 100 µM	> 100 µM	> 100 µM	> 100 µM	> 100 µM	> 100 µM	> 100 µM									
COc1ccc(/C=C/C(=O)c2ccc(-n3cc(CN4CCN(c5cc6c(cc5F)c(=O)c(C(=O)O)cn6C5CC5)CC4)nn3)cc2)cc1OC		> 100 µM	> 100 µM	8.41 µM	> 100 µM	22.3 µM	10.4 µM	6.98 µM	> 100 µM	8.84 µM	2.63 µM	1.24 µM	2.59 µM	0.396 µM	2.97 µM	2.77 µM	1.37 µM	6.34 µM	2.83 µM
COC(=O)c1c(C)cccc1C1CN=NC12Cc1ccc(C)c(C)c1C2=O (configuration not stated)	> 100 µM	> 100 µM	> 100 µM	> 100 µM	> 100 µM	> 100 µM	> 100 µM	> 100 µM	> 100 µM	57.9 µM									
Cc1ccc(NC2=NCCO2)c2c1CCC2	> 100 µM	> 100 µM	> 100 µM	92.4 µM	> 100 µM	> 100 µM	> 100 µM	> 100 µM		> 100 µM									
COC(=O)c1c(CC(Cc2ccc3c(c2)CCCC3)C(=O)OC)ccc2c1CCCC2 (configuration not stated)	> 100 µM	> 100 µM	> 100 µM	> 100 µM	> 100 µM	> 100 µM	> 100 µM	> 100 µM	> 100 µM	> 100 µM									
C[N+](C)(C)C=Nc1cccc2c1CCCC2	> 100 µM	> 100 µM	> 100 µM	> 100 µM	> 100 µM	> 100 µM	> 100 µM		> 100 µM	> 100 µM									
CS[C@]12[C@@H]3C(=O)N(C)C(=O)[C@@H]3[C@](C)(C(=O)N1C)C(=O)N2c1ccccc1	> 100 µM	> 100 µM	> 100 µM	> 100 µM	> 100 µM	> 100 µM	> 100 µM	> 100 µM	> 100 µM	> 100 µM									
CN1CN(c2ccccc2)C2(CCN(CCCCCCF)CC2)C1=O	> 100 µM	> 100 µM	> 100 µM	> 100 µM	60.6 µM	> 100 µM	> 100 µM	> 100 µM	> 100 µM	> 100 µM									
Cc1c(OCc2ccccc2)c(=O)ccn1CCc1c[nH]c2ccccc12	87 µM	> 100 µM	71.9 µM	88.3 µM	42.9 µM	> 100 µM		> 100 µM	> 100 µM	87.3 µM									
